# Results reported in article PMC5514948, “Stereochemical preference toward oncotarget: Design, synthesis and in vitro anticancer evaluation of diastereomeric β-lactams” (Oncotarget, 2017).
# “And” between values parts separate entries of the source, which are not always exact repeats. Equal values may be shown once.
# Key:
# [1] = test system: B16F10 (murine melanoma) cells; assay: Cytotoxic activity, WST-1 assay, B16F10; format: cell-based
# Protocol: (§1) In vitro anticancer assays were performed in triplicate for the determination of mean values. The human cervical carcinoma SiHa, murine melanoma B16F10, chronic myelogenous leukemia (CML) K562, and Chang cell lines were cultured in minimum essential medium of Eagle at 37 °C in a […] atmosphere with 10% fetal bovine serum, 2 mM L-glutamine and 1% penicillin/streptomycin. Cells were trypsinized and seeded at a density of 5 × 10^4 cells/mL in a 96-well plate and incubated at 37 °C, […] atmosphere for 24 h. Thereafter the cells were treated with azetidin-2-one derivatives (dissolved in DMSO) at various concentrations between 312 nM–10 μM, and re-incubated for further 72 h. Wells containing the equal volume of the vehicle DMSO (1% v/v) were used as background (negative control). The culture medium was then removed and the cells washed with 100 μL phosphate buffered saline (PBS); then 10 μL WST-1 (Roche, USA) was added. Cells were incubated for 2 h in absence of light at 37°C, and absorbance was read subsequently. […] Afterwards, these values were used to assess half maximal inhibitory concentration (IC50) using Graph-Pad Prism software.
# [2] = test system: K562 (human immortalized myelogenous leukemia) cells; assay: Cytotoxic activity, WST-1 assay, K562; format: cell-based
# Protocol: as §1
# [3] = test system: SiHa (human cervical carcinoma) cells; assay: Cytotoxic activity, WST-1 assay, SiHa; format: cell-based
# Protocol: as §1
# [4] = test system: Chang (normal liver) cells; assay: cells; format: cell-based; details: 72 h, WST-1, triplicate
# Protocol: as §1
# Chang cells = assay: Hematoxylin/Eosin staining of Chang cells; format: cell-based; details: 24 h, 6C 1 μM, taxol
# Protocol: (§2) The cytotoxic effect of the compound 6C in SiHa and Chang cells has been studied (Figure 2).
# (§3) Cells (10 × 10^4) were grown on coated poly-lysine coverslips which were placed in 6-well microplates overnight and then incubated for 24 h in the presence of compound 6C or taxol, subsequently stained with hematoxylin and eosin. Coverslips were then observed by Light microscopy of bright field (40X).
# SiHa cells = assay: Hematoxylin/Eosin staining of SiHa cells; format: cell-based, human; details: 24 h, 6C 1 μM, taxol
# Protocol: as §2, §3
# [5] = test system: caspase-3 activation in B16F10 cells; assay: Apoptotic activity, caspase-3 assay; format: cell-based, murine; details: 24 h, podophyllotoxin as positive control
# Protocol: The mechanism of cell death was identified as apoptosis. It was validated with the compound 6C. Enzyme activity associated with the induction of apoptosis was determined by caspase-3 assay (Invitrogen, USA) as described in the protocol. A concentration of approximately 3 × 10^6 cells/mL (B16F10) was taken and incubated for 24 h at 37 °C in 5% CO2 environment. Podophyllotoxin (apoptosis inducing agent) was used as positive control. After incubation for 24 h the cells were re-suspended and 50 μL of cell lysis reagent was added, then cells were incubated for 10 min in ice bath and centrifuged. The supernatant (cytosol extract) was transferred into a new effendrof. Cytosol extract was diluted with cell lysis reagent to a concentration of 2 μg/μL, in a total volume of 50 μL. Then 50 μL of 2X reaction buffer and 5 μL of tetrapeptide-p-nitroaniline (DEVD-pNA) were added. It was incubated at 37 °C for 2 h (in dark), and finally the optical density at 405 nm was measured with an ELISA Reader. Caspase-3 activity was calculated that confirmed apoptosis as the mechanism of cell death.
Compound,"IC50 ([1]; 72 h, WST-1, triplicate)","IC50 ([2]; 72 h, WST-1, triplicate) [µM]","IC50 ([3]; 72 h, WST-1, triplicate) [µM]",IC50 [4] [µM],further results
"COc1ccc([C@@H]2[C@H](N)C(=O)N2c2ccc(OC)cc2)cc1 (racemic) [1C, (±)-Cis-3-amino-1,4-bis(4-methoxyphenyl) azetidin-2-one]",3.33 ± 0.3 µM,> 10,4.21 ± 0.4,6.21 ± 0.5,–
"COc1ccc([C@H]2[C@H](N)C(=O)N2c2ccc(OC)cc2)cc1 (racemic) [1T, (±)-Trans-3-amino-1,4-bis(4-methoxyphenyl) azetidin-2-one]",5.16 ± 0.5 µM,> 10,7.17 ± 0.3,7.91 ± 0.4,–
"COc1ccc([C@@H]2[C@H](N)C(=O)N2c2ccccc2)cc1 (racemic) [2C, (±)-Cis-3-amino-4-(4-methoxyphenyl)-1-phenyl-azetidin-2-one]",–,> 10,6.2 ± 0.6,8.03 ± 0.5,–
"COc1ccc([C@H]2[C@H](N)C(=O)N2c2ccccc2)cc1 (racemic) [2T, (±)-Trans-3-amino-4-(4-methoxyphenyl)-1-phenyl-azetidin-2-one]",7.63 ± 0.4 µM,> 10,7.14 ± 0.5,> 10,–
"COc1ccc(N2C(=O)[C@@H](N)[C@H]2c2ccc(OC)c(OC)c2)cc1 (racemic) [3C, (±)-Cis-3-amino-4-(3,4-dimethoxyphenyl)-1-(4-methoxyphenyl) azetidin-2-one]",< 5 µM and 3.91 µM,6.14 ± 0.4,5.1 ± 0.4,9.32 ± 0.6,–
"COc1ccc(N2C(=O)[C@@H](N)[C@@H]2c2ccc(OC)c(OC)c2)cc1 (racemic) [3T, (±)-Trans-3-amino-4-(3,4-dimethoxyphenyl)-1-(4-methoxyphenyl) azetidin-2-one]",> 10 µM,> 10,> 10,> 10,–
"COc1ccc(N2C(=O)[C@@H](N)[C@H]2c2ccccc2[N+](=O)[O-])cc1 (racemic) [4C, (±)-Cis-3-amino-1-(4-methoxyphenyl)-4-(2-nitrophenyl) azetidin-2-one]",5.91 ± 0.6 µM,> 10,7.28 ± 0.5,7.37 ± 0.4,–
"COc1ccc(N2C(=O)[C@@H](N)[C@@H]2c2ccccc2[N+](=O)[O-])cc1 (racemic) [4T, (±)-Trans-3-amino-1-(4-methoxyphenyl)-4-(2-nitrophenyl) azetidin-2-one]",> 10 µM,> 10,8.12 ± 0.4,> 10,–
"COc1ccc(N2C(=O)[C@@H](N)[C@H]2c2ccc(C)cc2)cc1 (racemic) [5C, (±)-Cis-3-amino-1-(4-methoxyphenyl)-4-(p-tolyl) azetidin-2-one]",–,> 10,4.03 ± 0.5,7.01 ± 0.1,–
"COc1ccc(N2C(=O)[C@@H](N)[C@@H]2c2ccc(C)cc2)cc1 (racemic) [5T, (±)-Trans-3-amino-1-(4-methoxyphenyl)-4-(p-tolyl)azetidin-2-one]",7.14 ± 0.6 µM,> 10,7.79 ± 0.5,> 10,–
"Cc1ccc([C@@H]2[C@H](N)C(=O)N2c2ccccc2)cc1 (racemic) [6C, (±)-Cis-3-amino-1-phenyl-4-(p-tolyl) azetidin-2-one]",0.7 ± 0.1 µM,> 10,2.34 ± 0.2,6.89 ± 0.3,"Morphological effect, Hematoxylin/Eosin staining (Chang cells): appearance of multiple intracytoplasmic vacuoles; times higher potency than colchicine ([1]; B16F10 cell lines, compared to colchicine): six; Morphological effect, Hematoxylin/Eosin staining (SiHa cells): loss of cytoplasm and decrease in the size of nuclei; Apoptosis through caspase-3 activation [5]: demonstrated apoptosis in B16F10 cancer cells through caspase-3 activation"
"Cc1ccc([C@H]2[C@H](N)C(=O)N2c2ccccc2)cc1 (racemic) [6T, (±)-Trans-3-amino-1-phenyl-4-(p-tolyl)azetidin-2-one]",5.79 ± 0.4 µM,> 10,4.79 ± 0.6,> 10,–
"COc1ccc(N2C(=O)[C@@H](N)[C@H]2c2ccccn2)cc1 (racemic) [7C, (±)-Cis-3-amino-1-(4-methoxyphenyl)-4-(2-pyridyl)azetidin-2-one]",> 10 µM,6.86 ± 0.4,8.43 ± 0.3,5.49 ± 0.4,–
"COc1ccc(N2C(=O)[C@@H](N)[C@@H]2c2ccccn2)cc1 (racemic) [7T, (±)-Trans-3-amino-1-(4-methoxyphenyl)-4-(2-pyridyl)azetidin-2-one]",> 10 µM,> 10,> 10,> 10,–
"CC(=O)O[C@H]1C(=O)[C@@]2(C)[C@H]([C@H](OC(=O)c3ccccc3)[C@]3(O)C[C@H](OC(=O)[C@H](O)[C@@H](NC(=O)c4ccccc4)c4ccccc4)C(C)=C1C3(C)C)[C@]1(OC(C)=O)CO[C@@H]1C[C@@H]2O [Paclitaxel, reference compound]",–,–,–,0.068 ± 0.02,"Morphological effect, Hematoxylin/Eosin staining (Chang cells): early apoptosis; IC50 ([1]; Mus musculus, B16-F10, 72 h, WST-1, triplicate): 9.57 ± 0.2 µM; Morphological effect, Hematoxylin/Eosin staining (SiHa cells): induced severe cell damage; IC50 ([2]; Homo sapiens, K562, value marked * (ng/mL)): 0.0048 ± 0.0004 mg/L; IC50 ([3]; Homo sapiens, SiHa, value marked * (ng/mL)): 0.364 ± 0.31 mg/L"
"CC[C@]1(O)C[C@@H]2CN(CCc3c([nH]c4ccccc34)[C@@](C(=O)OC)(c3cc4c(cc3OC)N(C)[C@H]3[C@@](O)(C(=O)OC)[C@H](OC(C)=O)[C@]5(CC)C=CCN6CC[C@]43[C@@H]65)C2)C1 [Vinblastine, reference compound]",–,–,–,–,"IC50 ([1]; Mus musculus, B16-F10, value marked * (ng/mL)): 0.055 ± 0.028 mg/L; IC50 ([2]; Homo sapiens, K562, 72 h, WST-1, triplicate): 0.006 µM; IC50 ([3]; Homo sapiens, SiHa, 72 h, WST-1, triplicate): 10.9 ± 0.8 µM"
